# In PubChem BioAssay (NCI):
#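 Five concentrations, 48 hours, 96-well plates. The concentration for 50% growth inhibition is given as GI50. TGI marks complete inhibition of growth.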
# Tests used:
# Test in all cases: NCI anticancer screen, dose series, 48 h
# A498 renal = system: A498 renal
# HCT-15 colon = system: HCT-15 colon
# HOP-62 NSCLC = system: HOP-62 NSCLC
# MOLT-4 leukemia = system: MOLT-4 leukemia
# OVCAR-8 ovarian = system: OVCAR-8 ovarian
# PC-3 prostate = system: PC-3 prostate
# RXF 393 renal = system: RXF 393 renal
# T-47D breast = system: T-47D breast
# UACC-257 melanoma = system: UACC-257 melanoma
# UACC-62 melanoma = system: UACC-62 melanoma
SMILES,TGI (A498 renal) [µM],TGI (HCT-15 colon) [µM],TGI (HOP-62 NSCLC) [µM],TGI (MOLT-4 leukemia) [µM],TGI (OVCAR-8 ovarian) [µM],TGI (PC-3 prostate) [µM],TGI (RXF 393 renal) [µM],TGI (T-47D breast) [µM],TGI (UACC-257 melanoma) [µM],TGI (UACC-62 melanoma) [µM],GI50 (HOP-62 NSCLC) [µM],GI50 (A498 renal) [µM],GI50 (HCT-15 colon) [µM],GI50 (MOLT-4 leukemia) [µM],GI50 (OVCAR-8 ovarian) [µM],GI50 (PC-3 prostate) [µM],GI50 (RXF 393 renal) [µM],GI50 (T-47D breast) [µM],GI50 (UACC-257 melanoma) [µM],GI50 (UACC-62 melanoma) [µM]
c1ccc2c(c1)[nH]c1nc3cc(-c4ccc5nc6c(nc5c4)[nH]c4ccccc46)ccc3nc12,> 100,> 32.3,> 100,> 100,> 100,> 100,> 100,> 100,> 100,> 100,–,–,–,–,–,–,–,–,–,–
COc1cc2c(cc1OC)C1c3ccccc3CCN1CC2 (stereo unspecified),> 100,> 100,> 100,> 100,> 100,> 100,> 100,> 100,> 100,> 100,–,–,–,–,–,–,–,–,–,–
COc1cc2c(cc1OCCCCOc1cc(-c3ccc(F)cc3)nc(C)n1)N=C[C@@H]1CCCN1C2=O,4.6,2.09,3.43,0.279,6.6,6.07,3.22,1.14,1.88,1.28,–,–,–,–,–,–,–,–,–,–
O=[N+]([O-])C(=C(N1CCCCC1)N1CCCCC1)/C(Cl)=C(\Cl)Br,42.2,54.1,> 100,57.3,35,60.3,62.9,65.1,61.6,28.1,–,–,–,–,–,–,–,–,–,–
CN(C)c1nc(=NCc2ccncc2)ss1,> 100,> 100,> 100,51.1,34.6,> 63.4,92.7,> 51.8,> 61.2,> 48.1,> 100,–,–,–,–,–,–,–,–,–
COc1ccc2c(c1)O/C(=C\c1cccc(OCC(=O)Nc3nc4c(s3)CCCC4)c1)C2=O,> 100,> 100,> 55.4,98.7,> 70.4,> 60.1,4.48,> 100,> 100,> 100,> 34,> 42.5,18.1,4.5,> 21.7,12.7,2.11,6.39,> 100,> 46.2
Cc1ccc(S(=O)(=O)N2CCSCCSCCSCCSCC2)cc1,> 74.2,> 100,> 57,> 100,48.4,> 100,> 45.9,74.1,> 100,38.1,–,–,–,–,–,–,–,–,–,–
